From PubChem BioAssay AID1996 come the findings set out here.

SMILES strings stand for the structures. ≈ marks a conversion by molar mass, not a printed value.

As a reminder, the solubility (kinetic) is the concentration staying in solution when a stock, usually in DMSO, is diluted into the medium.

For this series the following is noted: buffer; pH 7.4; 200.0 µM.
For `C=CCc1ccccc1Oc1cc(OC)nc(N)n1`, the solubility (kinetic) was more than 38.6 µg/mL.

In turn, `Cc1ccc(NS(=O)(=O)c2ccc3c(c2)N(C)CCO3)cc1` returned a kinetic solubility of 36.1 µg/mL (≈ 113 µM).

`Cc1ccc(OC(=O)c2ccc(Cl)c([N+](=O)[O-])c2)cn1` came in with a kinetic solubility of 42.8 µg/mL (≈ 146 µM). `Cc1ccc(C(=O)NCCCNC(=O)COc2ccc(C)c(C)c2)cn1`: the solubility (kinetic) stood at 49.1 µg/mL (≈ 138 µM). In the case of `Cc1ccc(OCCC(=O)Nc2ccc(C)c(F)c2)cc1`, the kinetic solubility was found to be 1.4 µg/mL (≈ 4.87 µM).

Regarding `COc1cc2ccccc2cc1C(=O)N1CCN(c2ccccn2)CC1`, the kinetic solubility is more than 52.1 µg/mL.

`CC(C)N(Cc1ccccc1)C(=O)c1ccc2nsnc2c1` gave a kinetic solubility of 38.2 µg/mL (≈ 123 µM).

In turn, `O=C(CN1CCOCC1)Nc1ccc(Br)cc1` came in with a solubility (kinetic) of more than 44.9 µg/mL. For `Cc1ccc(OCC(=O)N2CCCCCCC2)cc1` the value was more than 39.2 µg/mL. The compound `COc1ccc(Nc2nc(N)c([N+](=O)[O-])c(N3CCOCC3)n2)cc1` displayed a kinetic solubility of 21.2 µg/mL (≈ 61.2 µM). The compound `Cc1ccc(N2CCN(S(=O)(=O)N3CCCCC3)CC2)c(C)c1` yielded a solubility (kinetic) of 3.8 µg/mL (≈ 11.3 µM). Take `N#C/C(C(N)=O)=C1/SC=C(c2ccccc2)N1c1ccccc1`: the solubility (kinetic) is 0.4 µg/mL (≈ 1.25 µM). Then `CCOc1ccccc1CN1CCN(C2CCC2)CC1CCO` (configuration not stated), with 39.9 µg/mL (≈ 125 µM); and `Cl.N=C(c1cccc([N+](=O)[O-])c1)N1CCCCCC1`, with more than 42.6 µg/mL.

Compound `CC(=O)Nc1ccc(OCc2cccc3ccccc23)cc1` returned a kinetic solubility of less than 0.6 µg/mL. Then `COC(=O)Cc1c(O)ccn(C2CC2)c1=O`, with more than 33.5 µg/mL; and `CC(C)(C)OC(=O)N1CCCN(C(=O)c2ccc(Cl)cc2)CC1`, with more than 50.8 µg/mL; and `O=C1CCCN1CN(C(=O)c1ccccc1)c1ccccc1`, with more than 44.2 µg/mL. For `Cc1cccc(OCC(=O)NCC(C)(C)N2CCOCC2)c1` the value was more than 46 µg/mL. For `CCCC(=O)N1CC(=O)Nc2ccc(C)cc2C1c1ccccc1` (configuration not stated) the value was more than 48.4 µg/mL; for `Cc1ccc(NC(=O)C2CCCC2)cc1Cl`, 3.7 µg/mL (≈ 15.6 µM); for `O=C(Nc1ncccc1O)c1ccc2ccccc2c1`, more than 39.6 µg/mL. Take `CC(C)CNC(=O)COC(=O)c1c2c(nc3ccccc13)CCC2`: the solubility (kinetic) was more than 49 µg/mL.

The compound `Cc1ccnc(SC2CC(=O)N(c3ccc(C(C)C)cc3)C2=O)n1` (configuration not stated) returned a solubility (kinetic) of more than 51.2 µg/mL. For `CCC(=O)c1ccc(OCC(=O)Nc2ccc3c(c2)OCCO3)cc1` the value was 12.2 µg/mL (≈ 35.7 µM). Then `CN(c1ccccc1)S(=O)(=O)c1ccc2[nH]c(=O)[nH]c2c1`, with 16.6 µg/mL (≈ 54.7 µM). For `COc1ccccc1N1CCN(C(=O)CSc2nnc(C)n2C2CC2)CC1` the value was more than 58.1 µg/mL; for `Cc1ccc2[nH]c(=O)c3cc(C(=O)NCC4CCCO4)sc3c2c1` (configuration not stated), 1 µg/mL (≈ 2.92 µM). Regarding `COc1cccc(/C=C/C(=O)OCC(=O)Nc2ccc(Cl)cn2)c1`, the kinetic solubility is less than 0.4 µg/mL. In turn, `O=C(NCc1cccnc1)Nc1cccc(C(F)(F)F)c1` returned a solubility (kinetic) of more than 44.3 µg/mL. Then `c1ccc(CN2CCN(Cc3ccc4ccccc4c3)CC2)cc1`, with 23.4 µg/mL (≈ 73.9 µM); and `Cc1ccc(OCC(=O)N2CC(C)CC(C)C2)c([N+](=O)[O-])n1` (configuration not stated), with more than 46.1 µg/mL. Then `CCNC(=O)CC1C(=O)N(c2ccc(OC)cc2)C(=O)N1CCOC` (configuration not stated), with more than 52.4 µg/mL.

For the compound `CN(c1ccccc1)S(=O)(=O)c1ccc2c(c1)OCCO2`, the solubility (kinetic) is 43.2 µg/mL (≈ 141 µM). Then `N#Cc1c(C(F)(F)F)cc(=O)n2c1[nH]c1ccccc12`, with more than 41.6 µg/mL; and `CCCS(=O)(=O)N1CCN=C1SCc1cccc(F)c1`, with 39.6 µg/mL (≈ 125 µM); and `CC(C)Oc1ncnc2c1[nH]c1ccccc12`, with 12.5 µg/mL (≈ 55 µM). For `CC(C)(C)NC(=O)CN1C(=O)/C(=C/c2ccccc2)SC1=S` the value was 1.1 µg/mL (≈ 3.29 µM); for `O=C(Cc1ccccc1)NCC(=O)OCc1cccc([N+](=O)[O-])c1`, more than 49.2 µg/mL. Then `O=C(O)c1cc(NC(=O)C2CCCO2)cc(C(=O)O)c1` (configuration not stated), with more than 41.9 µg/mL; and `CC(C)=Cc1oc2ccc([N+](=O)[O-])cc2c1N1CCOCC1`, with less than 0.3 µg/mL.

In turn, `Cc1ccc(SCC(=O)c2c(C)nc3ccccn23)cc1` showed a kinetic solubility of 2.6 µg/mL (≈ 8.77 µM). For `O=C(Nc1cccc2ncccc12)c1ccccc1[N+](=O)[O-]`, the solubility (kinetic) came out at 36.6 µg/mL (≈ 125 µM). Then `O=C(CCc1ccccc1)Nc1cccnc1Cl`, with 35.1 µg/mL (≈ 135 µM); and `COc1ccc(C2(C)NC(=O)N(CC(=O)N(c3ccccc3)C3CCS(=O)(=O)C3)C2=O)cc1` (configuration not stated), with 52.8 µg/mL (≈ 112 µM); and `Clc1ccc(N2CCN(c3ccnc(Cl)n3)CC2)cc1`, with 2.3 µg/mL (≈ 7.44 µM).

Take `[O-][N+]1=c2ccc(Nc3ccccc3)cc2=NC12CCCCC2`: the solubility (kinetic) was less than 0.2 µg/mL. Then `Cc1cccc(NC(=O)CN(CC2CCCO2)C(=O)c2cc(S(=O)(=O)N(C)C)ccc2F)c1C` (configuration not stated), with more than 73.7 µg/mL.

Turning to `Cc1cc(C)cc(NC(=O)C[n+]2ccccc2)c1.[Cl-]`, the solubility (kinetic) is more than 41.5 µg/mL. For `Nc1c2c(nc3cccc(Cl)c13)N(c1ccccc1)CC2` the value was 0.9 µg/mL (≈ 3.04 µM); for `CNC(=S)N(Cc1ccc(Cl)cc1)Cc1cccs1`, 16 µg/mL (≈ 51.5 µM); for `O=C(Nc1ccc(Cl)cc1N1CCOCC1)C1CCCO1` (configuration not stated), 44.7 µg/mL (≈ 144 µM). Then `CCOC(=O)Cc1csc(NC(=O)Cc2ccc(C)cc2)n1`, with 45.2 µg/mL (≈ 142 µM); and `Cc1cc(C)c2c(N)c(C(=O)c3ccccc3)sc2n1`, with less than 0.3 µg/mL; and `CC(C)c1ccc(NC(=O)COc2ccccc2)cc1`, with 10.1 µg/mL (≈ 37.5 µM).

Compound `CCOc1ccc(CNC(=O)CCc2cn(C)c3ccccc23)cc1` came in with a solubility (kinetic) of 2.1 µg/mL (≈ 6.24 µM).

Consider `CCOc1ccc(NC(=O)Nc2ccc3c(c2)CCC3)cc1`, for which the solubility (kinetic) is less than 0.3 µg/mL. For `c1ccc2c(-c3cncc4ccccc34)cncc2c1` the value was 32.1 µg/mL (≈ 125 µM); for `COc1ccc(NC(=S)N2CCN(Cc3ccc(C)cc3)CC2)cc1`, 0.4 µg/mL (≈ 1.13 µM).

The compound `Cc1ccc(C(=O)COC(=O)CN2C(=O)C3C4C=CC(C4)C3C2=O)cc1C` (configuration not stated) came in with a kinetic solubility of more than 55.1 µg/mL. On to `CCc1c(C)sc(NC(=O)c2cc(C(C)C)on2)c1C#N`, for which the kinetic solubility amounted to 3.4 µg/mL (≈ 11.2 µM). Then `COc1ccccc1N1CCN(/N=C/c2ccccc2C(=O)O)CC1`, with more than 50.9 µg/mL. Turning to `CNC(=S)NCCc1ccccc1`, the kinetic solubility stood at 25.6 µg/mL (≈ 132 µM). Then `O=C(c1ccc([N+](=O)[O-])cc1)N1C=CC(C(F)(F)F)=NCC1`, with more than 47 µg/mL; and `O=C(NCCOc1cccc2cccnc12)c1cccs1`, with more than 44.8 µg/mL.

In turn, `CN(CC(=O)Nc1ccccc1Cl)C(=O)COC(=O)c1ccc(-c2ccc(O)cc2)cc1` came in with a kinetic solubility of 3.2 µg/mL (≈ 7.07 µM).

`COc1ccc2[nH]c(C(=O)Nc3ccc(F)cc3Br)cc2c1`: the solubility (kinetic) is less than 0.4 µg/mL. `CC(NC(=O)COC(=O)c1cc(S(=O)(=O)N2CCOCC2)ccc1F)c1ccccc1` (configuration not stated): the kinetic solubility was more than 67.6 µg/mL. For `C/C(=C\c1ccccc1)CN1CCN(Cc2ccc(C)o2)C(CCO)C1` (configuration not stated) the value was 42.2 µg/mL (≈ 119 µM); for `COC(=O)CCCN1C(=O)c2cccc3cccc(c23)C1=O`, 43.6 µg/mL (≈ 147 µM); for `COc1cc(C(=O)COC(=O)c2c(C)noc2C)cc(OC)c1OC`, more than 52.4 µg/mL. Turning to `O=C(CC1(CC(=O)N2CCOCC2)CCCC1)Nc1ccccc1`, the solubility (kinetic) is more than 49.6 µg/mL. For `COc1ccc(O)c(/C=N/N2CCOCC2)c1` the value was more than 35.4 µg/mL; for `O=C(NCc1ccc(F)cc1)c1cc2ccccc2o1`, 34.9 µg/mL (≈ 130 µM); for `Cc1csc(=O)n1CC(=O)Nc1nc2ccccc2s1`, more than 45.8 µg/mL. As for `COC(=O)c1cc(-c2ccccc2)nc2nc(SC)[nH]c(=O)c12`, the solubility (kinetic) came to 9.8 µg/mL (≈ 29.9 µM). Regarding `Cc1ccsc1/C=N/N1CCOCC1`, the kinetic solubility was more than 31.5 µg/mL. Then `Cc1ccc(C2(C)NC(=O)N(CC(=O)N(c3ccccc3)C3CCS(=O)(=O)C3)C2=O)cc1` (configuration not stated), with more than 68.3 µg/mL; and `COc1ccc(NC(C)=O)cc1CNC(=O)CN1CCOCC1`, with more than 48.2 µg/mL.

`N#CCSc1nc2ccccc2c(=O)n1CC1CCCC1` returned a kinetic solubility of 0.8 µg/mL (≈ 2.67 µM). For `CCn1c(SCC(=O)Nc2nccs2)nnc1C1CC1` the value was more than 46.4 µg/mL.

With `CCN(Cc1ccccc1)S(=O)(=O)c1ccc(OC)c2ncccc12`, the kinetic solubility was more than 53.5 µg/mL. For `O=[N+]([O-])c1cc(C(F)(F)F)ccc1N1CCN(CCO)CC1` the value was more than 47.9 µg/mL. Then `CCC(C)c1ccc(NC(=O)NCCN2CCCCC2)cc1` (configuration not stated), with 40.3 µg/mL (≈ 133 µM); and `CC(C)c1nc2sc(C(=O)O)c(N)c2c2c1CCCC2`, with 14.6 µg/mL (≈ 50.3 µM). Then `CCCCn1nc(CC(=O)NCCN(CC)CC)c2ccccc2c1=O`, with more than 53.8 µg/mL; and `C/C(=N/OC(=O)c1ccc(Br)cc1)c1ccc(C)cc1`, with less than 0.7 µg/mL; and `O=C(Nc1ccc2ccccc2n1)Nc1ccccc1F`, with less than 0.2 µg/mL.

The compound `Cc1ccc(C(=O)N[C@H](C(=O)Nc2ccc(F)cc2)C(C)C)cc1` returned a solubility (kinetic) of 3 µg/mL (≈ 9.14 µM). Then `O=C(NCCc1ccc(Cl)cc1)c1ccc(=O)[nH]c1`, with 38.1 µg/mL (≈ 138 µM); and `CCSc1ccccc1C(=O)Nc1ccc([N+](=O)[O-])cc1OC`, with 1.4 µg/mL (≈ 4.21 µM); and `COc1cccc(-c2noc(CCC(=O)NCCc3ccccc3)n2)c1`, with 44.3 µg/mL (≈ 126 µM). For `CC(C)N(Cc1ccccc1)C(=O)COC(=O)c1cc(S(=O)(=O)N(C)C)ccc1N1CCCC1` the value was 7.5 µg/mL (≈ 15.4 µM); for `CN1C2CCC1CC(NC(=O)c1cccc(C(F)(F)F)c1)C2` (configuration not stated), more than 46.9 µg/mL; for `CC1CCCCC1NC(=O)COC(=O)c1cc(=O)c2ccccc2o1` (configuration not stated), more than 51.5 µg/mL. Then `O=C(Nc1nccs1)c1cc2cc(Cl)ccc2oc1=O`, with 1.5 µg/mL (≈ 4.89 µM); and `CN(C(=O)COC(=O)c1cc2ccccc2oc1=O)C1CCCCC1`, with 47.7 µg/mL (≈ 139 µM); and `CCn1c(SCC(=O)Nc2ccccc2OC)nc(O)cc1=O`, with 47.7 µg/mL (≈ 142 µM). Turning to `NC(=NCCc1c[nH]c2ccccc12)NC(=O)c1ccc(F)cc1`, the kinetic solubility was more than 48.7 µg/mL. For `O=C(c1ccco1)N1CCCC(Nc2ccc3c(c2)OCCO3)C1` (configuration not stated) the value was 44.7 µg/mL (≈ 136 µM); for `O=C(O)COCC(=O)Nc1ccc2c(c1)oc1ccccc12`, more than 44.9 µg/mL; for `CN1CCN(Cc2nnc(-c3ccccc3)o2)CC1`, more than 38.7 µg/mL.
